Laboratory results taken from patent US20170089887A1, “CONTRACTILITY ASSAY” (Nano3D Biosciences, Inc, priority 2011, published 2017).
Like-named read-outs stand apart in the source and are kept apart here. Bridge positions count the residues as written; N and C are the ends. Square brackets hold non-standard residues; d marks the D form. Peptide text beside a SMILES is read from it. Orn = NCCC[C@H](N)C(=O)O; Mpa = O=C(O)CCS

Assays:
[1] = tested on: myometrial smooth muscle cells; assay: CBiO Assay (contraction of magnetically 3D bioprinted rings); format: cell-based, human
Experimental: We developed an assay, the CBiO Assay (contractility BiO Assay) to mimic uterine contractility in vitro. The basis of this assay is one in which cells are magnetically 3D bioprinted into 3D rings (e.g., 0.125″ outer diameter, 0.0625″ inner diameter) in 384-well plates. After printing, the magnetic field is removed, and these rings contract immediately (<24 h), as cells within the ring contract, rearrange, and compact the ring.
Along with this CBiO assay, a mobile device-based imaging system (n3Dock) was used to image and measure whole plates of rings (FIG. 3). This imaging system is driven by an iPod Touch (Apple Computer, CA) that was programmed to automatically image plates at regular intervals (≧1 s) for the length of the experiment using a freely available app for download (Experimental Assistant, Nano3D Biosciences). Using the n3Dock to image rings is possible given the fine camera resolution of the iPod (5 MP, resolution=250 μm) (Timm, 2013), and the brown color of the ring imparted by the NS that provides contrast against the lightness of the surrounding media. As a result, the iPod captures images of whole plates in a compact dock that fits within most standard incubators. Of course, any smart phone or pad or tablet equipped with a camera could be used herein.
From the same tissue, cells were grown in vitro as monolayer cultures and then harvested. […]

myometrial strips = assay: Wire myography of ex vivo myometrial strips in organ bath; parameters: species or system human; conditions: 1 μM-1 mM
Experimental: Ex vivo tissue was also tested for comparison to the CBiO Assay. Uterine biopsies obtained from cesarean sections were cut into myometrial strips (10×2×2 mm) mounted in an organ chamber system bath (10 mL) containing Kreb's buffer maintained at 37° C. and bubbled with 5% CO2/95% O2 to maintain the pH at 7.4. Eight uterine strips were obtained form each individual biopsy. The strips were equilibrated for 1 h starting from a resting tension of 1 g and spontaneous uterine contractility was stabilized for isometric tension recording. […] Two uterine strips were exposed to each tocolytic drug, thereby conducting duplicate experiments for each drug. […] All tocolytic doses used were based from previous human myometrial contractility studies. […] For the ex vivo tissue contractile activity, myometrial strips were mounted in a myograph organ bath system. […] The contractile inhibitory response was the area change at 5 h for the CBiO Assay, and the AUC for myography (FIG. 7). The contractile inhibitory response (CIR) in this experiment was defined as the percent change in ring image pixels before and after drug exposure. Thus, FIG. 7 reports a change in size rather than a rate. However, rates can be reported if desired.

[2] = cited from earlier work
preterm labor = conditions: cited from earlier work; for Onsef of action: clinical dose per Table 1; for Delay in delivery for 48 hrs: clinical treatment of preterm labor

COc1ccc2c(c1)c(CC(=O)O)c(C)n2C(=O)c1ccc(Cl)cc1 [Indomethacin]
IND/NIF preference ratio (PR) ([1]; Patient 1, area change at 5 h): 0.75
IND/NIF preference ratio (PR) ([1]; Patient 2, area change at 5 h): 0.97
IND/NIF preference ratio (PR) (myometrial strips; Patient 1, AUC): 0.48
IND/NIF preference ratio (PR) (myometrial strips; Patient 2, AUC): 0.92
Cmax (Peak plasma concentration) ([2]; clinical dose 50 mg oral, then 25 mg every 6 hrs, as recommended by the manufacturer): 2 µg/mL
Onsef of action (preterm labor; as recommended by the manufacturer): 2 h
Delay in delivery for 48 hrs (preterm labor): 90-94%^58-61

CCOc1ccc(C[C@H]2NC(=O)CCSSC[C@@H](C(=O)N3CCC[C@H]3C(=O)N[C@@H](CCCN)C(=O)NCC(N)=O)NC(=O)[C@H](CC(N)=O)NC(=O)[C@H]([C@@H](C)O)NC(=O)[C@H]([C@@H](C)CC)NC2=O)cc1 [Atosiban] ([Mpa][dY](Et)ITNCP[Orn]G-NH2; disulfide 1-6)
Cmax (Peak plasma concentration) ([2]; clinical dose per Table 1): 442 ng/ml^63
Onsef of action (preterm labor): 1 hr^63
Delay in delivery for 48 hrs (preterm labor): 93%^64
